The target of test [1] is T1, Muscarinic acetylcholine receptor M2 (Homo sapiens, UniProt P08172).
T1 sequence (P08172 whole entry): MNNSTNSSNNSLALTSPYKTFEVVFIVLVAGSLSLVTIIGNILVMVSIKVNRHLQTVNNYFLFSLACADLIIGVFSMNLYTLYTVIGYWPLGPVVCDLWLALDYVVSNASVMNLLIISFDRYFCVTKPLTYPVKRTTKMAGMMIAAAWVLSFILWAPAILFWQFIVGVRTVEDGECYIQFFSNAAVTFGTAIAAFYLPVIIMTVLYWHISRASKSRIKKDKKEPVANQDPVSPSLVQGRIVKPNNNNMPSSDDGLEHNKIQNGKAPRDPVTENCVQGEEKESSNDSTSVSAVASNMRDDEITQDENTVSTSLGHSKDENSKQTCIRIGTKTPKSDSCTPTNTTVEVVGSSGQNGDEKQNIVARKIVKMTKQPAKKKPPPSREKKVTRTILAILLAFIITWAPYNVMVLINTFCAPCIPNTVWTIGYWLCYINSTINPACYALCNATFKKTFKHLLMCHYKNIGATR

The target of test [2] is T2, Muscarinic acetylcholine receptor M4 (Homo sapiens, UniProt P08173).
T2 sequence (P08173 whole entry): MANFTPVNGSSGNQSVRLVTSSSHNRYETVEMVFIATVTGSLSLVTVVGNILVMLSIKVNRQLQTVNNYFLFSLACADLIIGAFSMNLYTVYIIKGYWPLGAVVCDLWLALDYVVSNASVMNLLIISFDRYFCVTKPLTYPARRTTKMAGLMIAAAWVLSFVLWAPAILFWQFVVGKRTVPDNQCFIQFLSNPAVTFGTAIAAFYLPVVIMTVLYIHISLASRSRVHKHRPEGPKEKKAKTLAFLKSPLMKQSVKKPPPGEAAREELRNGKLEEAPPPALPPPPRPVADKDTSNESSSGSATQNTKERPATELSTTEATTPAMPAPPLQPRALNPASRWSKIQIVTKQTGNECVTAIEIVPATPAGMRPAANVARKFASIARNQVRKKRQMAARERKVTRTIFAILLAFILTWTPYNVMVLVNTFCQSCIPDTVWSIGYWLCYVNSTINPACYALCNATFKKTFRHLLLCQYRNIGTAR

Test [3] concerns the target T3, Muscarinic acetylcholine receptor M5 (Homo sapiens, UniProt P08912).
T3 sequence (P08912 whole entry): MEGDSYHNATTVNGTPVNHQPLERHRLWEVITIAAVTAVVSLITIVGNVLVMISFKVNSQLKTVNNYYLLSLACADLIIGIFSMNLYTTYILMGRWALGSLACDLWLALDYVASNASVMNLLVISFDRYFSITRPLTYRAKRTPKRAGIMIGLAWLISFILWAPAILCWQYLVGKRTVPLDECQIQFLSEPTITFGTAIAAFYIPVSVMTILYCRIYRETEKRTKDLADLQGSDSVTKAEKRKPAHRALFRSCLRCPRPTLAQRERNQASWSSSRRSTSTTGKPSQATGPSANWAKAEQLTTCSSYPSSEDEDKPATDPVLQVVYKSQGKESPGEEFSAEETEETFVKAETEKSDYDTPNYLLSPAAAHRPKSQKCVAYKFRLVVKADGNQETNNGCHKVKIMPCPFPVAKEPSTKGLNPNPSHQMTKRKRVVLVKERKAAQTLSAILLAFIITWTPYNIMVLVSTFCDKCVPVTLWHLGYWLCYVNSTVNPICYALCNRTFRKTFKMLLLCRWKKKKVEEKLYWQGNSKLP

Usually Ki stands for a measure of affinity in units of concentration, obtained from inhibition or displacement. A low value points to higher affinity.

The structures appear in SMILES notation. Where only a bound is given, the exact number is not on record here.

Regarding `CC1CCN(CCCC(=O)c2ccc(F)cc2)CC1` [CAS_3575-80-2], the Ki in test [1] is 2400 nM; in test [2], 4400 nM; in test [3], greater than 10000 nM.
Consider `O=C1CC2(CCCC2)CC(=O)N1CCCCN1CCN(c2nsc3ccccc23)CC1` [TIOSPERONE], for which the values for the inhibitory constant (Ki) in test [1], in test [2] and in test [3] were 180 nM, 480 nM and 3900 nM, respectively.
`OC(CCN1CCCCC1)(c1ccccc1)C1CC2C=CC1C2` (centres undefined) [1-(bicyclo[2.2.1]hept-5-en-2-yl)-1-phenyl-3-(piperidin-1-yl)propan-1-ol]: the values for the inhibition constant Ki in test [2] and in test [3] were 2.4 nM and 6.3 nM, respectively.
In the case of `CN(C)CC/C=C1\c2ccccc2Sc2ccc(Cl)cc21`, the Ki in test [2] came to 18 nM; in test [3], 25 nM.
As for `CN1CCCCC1CCN1c2ccccc2Sc2ccc([S+](C)[O-])cc21` (centres undefined), the Ki in test [1] amounted to 15 nM; in test [2], 19 nM; in test [3], 60 nM.
As to `OC(CCN1CCCC1)(c1ccccc1)C1CCCCC1` (centres undefined) [1-Cyclohexyl-1-phenyl-3-pyrrolidin-1-yl-propan-1-ol], the Ki in test [2] worked out at 7 nM; in test [3], 24 nM.
As for `CN1CCN(CC/C=C2/c3ccccc3Sc3ccc(S(=O)(=O)N(C)C)cc32)CC1` [MLS000028463], the figures for the Ki in test [1], in test [2] and in test [3] were 2100 nM, 1540 nM and 4310 nM, respectively.
For `CN1CCN(C2=Nc3cc(F)ccc3Cc3ccccc32)CC1`, the values for the Ki in test [1], in test [2] and in test [3] were 71 nM, 14 nM and 17 nM, respectively.
On to `O=C(CCCN1CCC(O)(c2ccc(Br)cc2)CC1)c1ccc(F)cc1` [BROMPERIDOL], for which the Ki in test [1] was 1800 nM; in test [2], 1700 nM; in test [3], 4800 nM.
With `CN(C)CCOC1=Cc2ccccc2Sc2ccc(Cl)cc21` [2-Chloro-11-(2-(dimethylamino)ethoxy)dibenzo(b,f)thiepin], the inhibitory constant (Ki) in test [2] amounted to 77 nM; in test [3], 260 nM.
Consider `CN1CCN(C2=Nc3ccccc3Oc3ccc(Cl)cc32)CC1` [13-chloro-10-(4-methylpiperazin-1-yl)-2-oxa-9-azatricyclo[9.4.0.0^{3,8}]pentadeca-1(11),3,5,7,9,12,14-heptaene], for which the Ki in test [2] is 300 nM; in test [3] it was 241 nM.
On to `CN1CCN(C2=Nc3cscc3C(=CC#N)c3cscc32)CC1` [NSC_3086153], for which the Ki in test [1] turned out to be 62 nM; in test [2], 430 nM; in test [3] it was 660 nM.
For `CN1CCN(C2=Cc3cc(Cl)ccc3C(=CC#N)c3ccccc32)CC1` [CAS_79781-95-6], the Ki in test [1] was found to be 470 nM; in test [2], 1000 nM; in test [3], 1100 nM.

These data come from BindingDB's records for PubMed 1346637 (Mayo Clinic, 1992).
